Columns and labels:
Test in all cases: Test E postemergence
Italian ryegrass = assay type: in vivo, Lolium multiflorum
From the text: (§1) Seeds of plant species selected from corn (Zea mays), soybean (Glycine max), velvetleaf (Abutilon theophrasti), lambsquarters (Chenopodium album), wild poinsettia (Euphorbia heterophylla), palmer pigweed (Amaranthus palmeri), waterhemp (common waterhemp, Amaranthus rudis), surinam grass (Brachiaria decumbens), large (Lg) crabgrass (Digitaria sanguinalis), Brazilian crabgrass (Digitaria horizontalis), fall panicum (Panicum dichotomiflorum), giant foxtail (Setaria faberii), green foxtail (Setaria viridis), goosegrass (Eleusine indica), johnsongrass (Sorghum halepense), ragweed (common ragweed, Ambrosia elatior), barnyardgrass (Echinochloa crus-galli), sandbur (southern sandbur, Cenchrus echinatus), arrowleaf sida (Sida rhombifolia), Italian ryegrass (Lolium multiflorum), dayflower (Virginia (VA) dayflower, Commelina virginica), field bindweed (Convolvulus arvensis), morningglory (Ipomoea coccinea), nightshade (eastern black nightshade, Solanum ptycanthum), kochia (Kochia scoparia), yellow nutsedge (Cyperus esculentus), cocklebur (common cocklebur, Xanthium strumarium), smartweed (ladysthumb smartweed, and hairy beggarticks (Bidens pilosa), were planted into a silt loam soil and treated preemergence with test chemicals formulated in a non-phytotoxic solvent mixture which included a surfactant.
(§2) At the same time, plants from these crop and weed species and also horseweed (Canada horseweed, Conyza canadensis), waterhemp_RES1, (ALS & Triazine resistant common waterhemp, Amaranthus rudis), and waterhemp_RES2, (ALS & HPPD resistant common waterhemp, Amaranthus rudis) were planted in pots containing Redi-Earth® planting medium (Scotts Company, 14111 Scottslawn Road, Marysville, Ohio 43041) comprising spaghnum peat moss, vermiculite, wetting agent and starter nutrients were treated with postemergence applications of test chemicals formulated in the same manner. Plants ranged in height from 2 to 18 cm for postemergence treatments (1- to 4-leaf stage). Treated plants and controls were maintained in a greenhouse for 14 to 21 days, after which time all species were compared to controls and visually evaluated. Plant response ratings, summarized in Table E, are based on a scale of 0 to 100 where 0 is no effect and 100 is complete control. A dash (-) response means no test result.

field bindweed = assay type: in vivo, Convolvulus arvensis
From the text: as §1, §2

Brazilian crabgrass = assay type: in vivo, Digitaria horizontalis
From the text: as §1, §2

[1] = Lolium multiflorum, post-emergence, Postemergence, 31 g ai/ha, scale 0 to 100, read-out: Plant response rating, Ryegrass, Italian
[2] = Lolium multiflorum, post-emergence, Postemergence, 62 g ai/ha, scale 0 to 100, read-out: Plant response rating, Ryegrass, Italian
[3] = Lolium multiflorum, post-emergence, Postemergence, 125 g ai/ha, scale 0 to 100, read-out: Plant response rating, Ryegrass, Italian
[4] = Lolium multiflorum, post-emergence, postemergence, 16 g ai/ha, scale 0 to 100, 0 no effect, 100 complete control, read-out: Plant response rating, Ryegrass, Italian
[5] = Convolvulus arvensis, post-emergence, Postemergence, 31 g ai/ha, scale 0 to 100, read-out: Plant response rating, Field Bindweed
[6] = Convolvulus arvensis, post-emergence, Postemergence, 62 g ai/ha, scale 0 to 100, read-out: Plant response rating, Field Bindweed
[7] = Convolvulus arvensis, post-emergence, Postemergence, 125 g ai/ha, scale 0 to 100, read-out: Plant response rating, Field Bindweed
[8] = Convolvulus arvensis, post-emergence, postemergence, 16 g ai/ha, scale 0 to 100, 0 no effect, 100 complete control, read-out: Plant response rating, Field Bindweed
[9] = Digitaria horizontalis, post-emergence, Postemergence, 31 g ai/ha, scale 0 to 100, read-out: Plant response rating, Crabgrass, Brazil
[10] = Digitaria horizontalis, post-emergence, Postemergence, 62 g ai/ha, scale 0 to 100, read-out: Plant response rating, Crabgrass, Brazil
[11] = Digitaria horizontalis, post-emergence, Postemergence, 125 g ai/ha, scale 0 to 100, read-out: Plant response rating, Crabgrass, Brazil
[12] = Digitaria horizontalis, post-emergence, postemergence, 16 g ai/ha, scale 0 to 100, 0 no effect, 100 complete control, read-out: Plant response rating, Crabgrass, Brazil
[13] = Postemergence, 31 g ai/ha, scale 0 to 100
[14] = Postemergence, 62 g ai/ha, scale 0 to 100
[15] = Postemergence, 125 g ai/ha, scale 0 to 100
[16] = postemergence, 16 g ai/ha, scale 0 to 100, 0 no effect, 100 complete control
[17] = postemergence, 8 g ai/ha, scale 0 to 100, 0 no effect, 100 complete control

## Clc1cnn(-c2ccccc2Oc2ncc(Br)cn2)c1 [Compound 5, 5-bromo-2-[2-(4-chloro-1H-pyrazol-1-yl)phenoxy]pyrimidine]
Italian ryegrass; [1]
  pest or weed control at 31 g/ha: 0%
Italian ryegrass; [2]
  pest or weed control at 62 g/ha: 0%
Italian ryegrass; [3]
  pest or weed control at 125 g/ha: 0%
Italian ryegrass; Lolium multiflorum, post-emergence, Postemergence, 250 g ai/ha, scale 0 to 100, read-out: Plant response rating, Ryegrass, Italian
  pest or weed control at 250 g/ha: 0%
Italian ryegrass; [4]
  pest or weed control at 16 g/ha: 0%
Field bindweed; [5]
  pest or weed control at 31 g/ha: 20%
Field bindweed; [6]
  pest or weed control at 62 g/ha: 30%
Field bindweed; [7]
  pest or weed control at 125 g/ha: 30%
Field bindweed; Convolvulus arvensis, post-emergence, Postemergence, 250 g ai/ha, scale 0 to 100, read-out: Plant response rating, Field Bindweed
  pest or weed control at 250 g/ha: 40%
Field bindweed; [8]
  pest or weed control at 16 g/ha: 10%
Brazilian crabgrass; [9]
  pest or weed control at 31 g/ha: 5%
Brazilian crabgrass; [10]
  pest or weed control at 62 g/ha: 10%
Brazilian crabgrass; [11]
  pest or weed control at 125 g/ha: 10%
Brazilian crabgrass; Digitaria horizontalis, post-emergence, Postemergence, 250 g ai/ha, scale 0 to 100, read-out: Plant response rating, Crabgrass, Brazil
  pest or weed control at 250 g/ha: 20%
Brazilian crabgrass; [12]
  pest or weed control at 16 g/ha: 0%

## N#Cc1cccc(Oc2ncc(Cl)cn2)c1-n1cc(OCC(F)(F)F)cn1 [Compound 274, 3-[(5-chloro-2-pyrimidinyl)oxy]-2-[4-(2,2,2-trifluoroethoxy)-1H-pyrazol-1-yl]benzonitrile]
Italian ryegrass; [1]
  pest or weed control at 31 g/ha: 10%
Italian ryegrass; [2]
  pest or weed control at 62 g/ha: 10%
Italian ryegrass; [3]
  pest or weed control at 125 g/ha: 40%
Italian ryegrass; Lolium multiflorum, post-emergence, postemergence, 8 g ai/ha, scale 0 to 100, 0 no effect, 100 complete control, read-out: Plant response rating, Ryegrass, Italian
  pest or weed control at 8 g/ha: 0%
Italian ryegrass; [4]
  pest or weed control at 16 g/ha: 5%
Field bindweed; [5]
  pest or weed control at 31 g/ha: 50%
Field bindweed; [6]
  pest or weed control at 62 g/ha: 70%
Field bindweed; [7]
  pest or weed control at 125 g/ha: 75%
Field bindweed; Convolvulus arvensis, post-emergence, postemergence, 8 g ai/ha, scale 0 to 100, 0 no effect, 100 complete control, read-out: Plant response rating, Field Bindweed
  pest or weed control at 8 g/ha: 60%
Field bindweed; [8]
  pest or weed control at 16 g/ha: 50%
Brazilian crabgrass; [9]
  pest or weed control at 31 g/ha: 25%
Brazilian crabgrass; [10]
  pest or weed control at 62 g/ha: 35%
Brazilian crabgrass; [11]
  pest or weed control at 125 g/ha: 50%
Brazilian crabgrass; Digitaria horizontalis, post-emergence, postemergence, 8 g ai/ha, scale 0 to 100, 0 no effect, 100 complete control, read-out: Plant response rating, Crabgrass, Brazil
  pest or weed control at 8 g/ha: 10%
Brazilian crabgrass; [12]
  pest or weed control at 16 g/ha: 20%

## Clc1cnc(Oc2cccc(Cl)c2-n2cc(I)cn2)nc1 [Compound 181]
Italian ryegrass; [13]
  Plant response rating, Ryegrass, Italian: 5
Italian ryegrass; [14]
  Plant response rating, Ryegrass, Italian: 10
Italian ryegrass; [15]
  Plant response rating, Ryegrass, Italian: 20
Italian ryegrass; [16]
  Plant response rating, Ryegrass, Italian: 5
Field bindweed; [13]
  Plant response rating, Field Bindweed: 40
Field bindweed; [14]
  Plant response rating, Field Bindweed: 40
Field bindweed; [15]
  Plant response rating, Field Bindweed: 50
Field bindweed; [16]
  Plant response rating, Field Bindweed: 25
Brazilian crabgrass; [13]
  Plant response rating, Crabgrass, Brazil: 20
Brazilian crabgrass; [14]
  Plant response rating, Crabgrass, Brazil: 30
Brazilian crabgrass; [15]
  Plant response rating, Crabgrass, Brazil: 30
Brazilian crabgrass; [16]
  Plant response rating, Crabgrass, Brazil: 20

## Clc1cnc(Oc2ccccc2-n2cc(Br)nn2)nc1 [Compound 223]
Italian ryegrass; [13]
  Plant response rating, Ryegrass, Italian: 0
Italian ryegrass; [14]
  Plant response rating, Ryegrass, Italian: 0
Italian ryegrass; [15]
  Plant response rating, Ryegrass, Italian: 0
Italian ryegrass; [17]
  Plant response rating, Ryegrass, Italian: 0
Italian ryegrass; [16]
  Plant response rating, Ryegrass, Italian: 0
Field bindweed; [13]
  Plant response rating, Field Bindweed: 35
Field bindweed; [14]
  Plant response rating, Field Bindweed: 50
Field bindweed; [15]
  Plant response rating, Field Bindweed: 50
Field bindweed; [17]
  Plant response rating, Field Bindweed: 20
Field bindweed; [16]
  Plant response rating, Field Bindweed: 20
Brazilian crabgrass; [13]
  Plant response rating, Crabgrass, Brazil: 10
Brazilian crabgrass; [14]
  Plant response rating, Crabgrass, Brazil: 10
Brazilian crabgrass; [15]
  Plant response rating, Crabgrass, Brazil: 20
Brazilian crabgrass; [17]
  Plant response rating, Crabgrass, Brazil: 0
Brazilian crabgrass; [16]
  Plant response rating, Crabgrass, Brazil: 0

## N#Cc1cccc(Oc2ncc(F)cn2)c1-n1cc(C(F)(F)F)cn1 [Compound 79, 3-[(5-fluoro-2-pyrimidinyl)oxy]-2-[4-(trifluoromethyl)-1H-pyrazol-1-yl]benzonitrile]
Italian ryegrass; [2]
  pest or weed control at 62 g/ha: 0%
Italian ryegrass; [3]
  pest or weed control at 125 g/ha: 0%
Italian ryegrass; [4]
  pest or weed control at 16 g/ha: 0%
Field bindweed; [5]
  pest or weed control at 31 g/ha: 70%
Field bindweed; [6]
  pest or weed control at 62 g/ha: 80%
Field bindweed; [7]
  pest or weed control at 125 g/ha: 80%
Field bindweed; [8]
  pest or weed control at 16 g/ha: 60%
Brazilian crabgrass; [9]
  pest or weed control at 31 g/ha: 10%
Brazilian crabgrass; [10]
  pest or weed control at 62 g/ha: 20%
Brazilian crabgrass; [11]
  pest or weed control at 125 g/ha: 30%
Brazilian crabgrass; [12]
  pest or weed control at 16 g/ha: 0%

— patent US9695155B2, “Herbicidal substituted pyrimidinyloxy benzene compounds” (E. I. DU PONT DE NEMOURS AND COMPANY, priority 2013, dated 2017)
